Test results taken from patent publication US9758559B2, “Short peptides derived from VDAC1, compositions and methods of use thereof” (B.G. NEGEV TECHNOLOGIES AND APPLICATIONS LTD., AT …, priority 2013, dated 2017).
Where no end group is shown, it is not given here.

Assays:
[1] = system: MEC-1 cells; assay type: cell-based; conditions: for cell-death induction activity, in words: compared with N-Ter-Antp
Protocol: (§1) MEC-1, MO1043 and T-Rex-293 cells were grown in DMEM supplemented with 10% FCS, 2 mM L-glutamine, 1000 U/ml penicillin and 1 mg/ml streptomycin, U-87, C6 and PC3 were maintained in RPMI 1640 supplemented with 10-20% FCS, 2 mM L-glutamine, 1000 U/ml penicillin and 1 mg/ml streptomycin. All cells were maintained in a humidified atmosphere with 5% CO2 at 37° C.
(§2) PBMCs (4×10^5 or 8×10^5 cells/sample) were incubated in 200 μl serum-free medium with the examined peptide for 90 min at room temperature and centrifuged (500×g, 5 min) Cell death was analyzed by PI staining and flow cytometer (Beckton-Dickinson) and BD Cell Quest Pro software. Apoptotic cell death was also analyzed by PI and annexin V-FITC staining (Zaid H et al. 2005. 12:751-760), and by acridine orange and ethidium bromide staining and confocal microscopy (Olympus 1×81).
(§3) To optimize the VDAC1 N-terminal derived peptides with respect to stability, length and specific targeting to cancer cells, several versions of these peptides were designed and tested for their efficacy in inducing the death of CLL-derived lymphocytes and MEC-1 cells (Table 3). Cells were incubated for 90 min with increasing concentrations of the indicated peptide and death was analyzed by PI stating and FACS as described hereinabove. As is clearly shown in FIG. 1 (and Table 3), deleting 6 residues from the C-terminus of the peptide, including the GXXXG motif, yielded a non-active peptide (peptide Δ(21-26) N-Ter-Antp, SEQ ID NO:22).

[2] = system: CLL-derived lymphocytes; assay: Cell death of CLL-derived lymphocytes (PBMCs of CLL patients), PI staining and FACS; assay type: cell-based, human; conditions: 90 min incubation, PI staining, FACS, read-out: IC50, induction of cell death, CLL
Protocol: PBMCs were isolated from venous blood of the CLL patients by Ficoll-Paque PLUS (GE Healthcare, Israel) density gradient centrifugation, as follows. Venous blood (10-20 ml) was drawn from CLL patients with satisfying diagnostic criteria for CLL or from normal adult donors. Blood was collected into heparin tubes and was diluted 1:1 with balance solution composed of two stock solutions, A (1% D-glucose, 50 mM CaCl2, 0.98 mM MgCl2, 5.4 mM KCl and 0.145 M Tris-HCl, pH 7.6) and B (0.14 M NaCl) in a 1:9 ratio. The resulting mix was carefully layered on Ficoll-Paque Plus (10 ml of diluted blood:15 ml Ficoll) in 50 ml conical tubes. The tubes were centrifuged at 400×g (with minimal acceleration and deceleration) and 18-20° C. for 40 min. […] Cells were counted by a Countess Automated Cell Counter (Invitrogen).
as §2, with “1×81). […]” for “1×81).”

[3] = system: MO1043 cells; assay: Cell death of MO1043 cells, PI staining and FACS; assay type: cell-based, human; conditions: compared with N-Ter-Antp
Protocol: as §1, §2
as §3, with “As is clearly shown in FIG. 1 (and Table 3), deleting 6 residues from the C-terminus of the peptide, including the GXXXG motif, yielded a non-active peptide (peptide Δ(21-26) N-Ter-Antp, SEQ ID NO:22).” left out

Sequence	cell-death induction activity, in words [1]	also measured
GKSARDVFTKGYGFGLRQIKIWFQNRRMKWKK [Δ(1-10) N-Ter-Antp, GKSARDVFTKGYGFGL RQIKIWFQNRRMKWKK]	did not significantly modified the cell-death induction activity	
MAVPPTYADLGKSARDVFTKGYGFGLRQIKIWFQNRRMKWKK [N-Ter-Antp, reference compound]		IC50 [2]: 3.2 ± 0.5 µM; IC50 ([1]; 90 min incubation, serum-free medium, PI staining, FACS, read-out: IC50, induction of cell death, MEC-1): 4.2 ± 0.2 µM
MAVPPTYADLGKSARDVFTKRQIKIWFQNRRMKWKK [Δ(21-26) N-Ter-Antp]	non-active	
PTYADLGKSARDVFTKGYGFGLRQIKIWFQNRRMKWKK [Δ(1-4) N-Ter-Antp]	did not significantly modified the cell-death induction activity	
RDVFTKGYGFGLRQIKIWFQNRRMKWKK [Δ(1-14) N-Ter-Antp, RDVFTKGYGFGL RQIKIWFQNRRMKWKK]	more active	
TKGYGFGL RQIKIWFQNRRMKWKK (TKGYGFGLRQIKIWFQNRRMKWKK) [Δ(1-18) N-Ter-Antp]		cell-death induction activity, in words [3]: more active
